# Experimental data reported in ChEMBL document CHEMBL3885861, “Open TG-GATES”.
# Organism: Rattus norvegicus
# Test: Open TG-GATES - Regimen: Single
# Type: toxicity, organism-based, Sprague-Dawley
# Design: regimen Single, gender Male, age 6 weeks
# Details: in vivo, iv, 1000 mg/kg, route intravenous injection, dose level Middle; for APTT / Bas / Eos / Fbg / Hb / Ht / Lym / MCH / MCHC / MCV / Mono / PT / Plat / RBC / Ret / WBC: tissue Blood; for KIDNEY_L / KIDNEY_R / KIDNEY_TOTAL: tissue Kidney; for LIVER: tissue Liver; for ALP / ALT / AST / BUN / CRE / Ca / Cl / DBIL / GLC / IP / K / LDH / Na / PL / RALB / TBIL / TC / TG / TP / gamma-GTP: tissue Plasma
smiles,measurement,setting,value
CC(=O)OCC1=C(C(=O)O)N2C(=O)[C@@H](NC(=O)Cc3cccs3)[C@H]2SC1 [CEPHALOTHIN],TERMINAL_BW,3 h,212.6 g
same,APTT,3 h,22.3 s
same,Bas,3 h,0%
same,Eos,3 h,0.4%
same,Fbg,3 h,266.6 mg/dL
same,Hb,3 h,13.2 g/dL
same,Ht,3 h,38.5%
same,Lym,3 h,72%
same,MCH,3 h,21.3 pg
same,MCHC,3 h,34.3%
same,MCV,3 h,62 fL
same,Mono,3 h,3.2%
same,PT,3 h,16.3 s
same,Plat,3 h,116.5 x10_4/uL
same,RBC,3 h,622 x10_4/ul
same,Ret,3 h,5.8%
same,WBC,3 h,76.3 x10_2/uL
same,KIDNEY_L,3 h,0.9 g
same,KIDNEY_R,3 h,0.9 g
same,KIDNEY_TOTAL,3 h,1.9 g
same,LIVER,3 h,10 g
same,ALP,3 h,1462.8 IU/L
same,ALT,3 h,52.4 IU/L
same,AST,3 h,101 IU/L
same,BUN,3 h,12.6 mg/dL
same,CRE,3 h,0.2 mg/dL
same,Ca,3 h,10.8 mg/dL
same,Cl,3 h,105.2 meq/L
same,DBIL,3 h,0 mg/dL
same,GLC,3 h,173 mg/dL
same,IP,3 h,8.5 mg/dL
same,K,3 h,4.3 meq/L
same,LDH,3 h,207.6 IU/L
same,Na,3 h,141.8 meq/L
same,PL,3 h,141.2 mg/dL
same,RALB,3 h,2.9 g/dL
same,TBIL,3 h,0.02 mg/dL
same,TC,3 h,68.8 mg/dL
same,TG,3 h,132.8 mg/dL
same,TP,3 h,5.2 g/dL
same,gamma-GTP,3 h,1.2 IU/L
same,TERMINAL_BW,6 h,218.3 g
same,APTT,6 h,24.1 s
same,Bas,6 h,0%
same,Eos,6 h,1%
same,Fbg,6 h,281.6 mg/dL
same,Hb,6 h,13.1 g/dL
same,Ht,6 h,38.6%
same,Lym,6 h,76.4%
same,MCH,6 h,21.1 pg
same,MCHC,6 h,34%
same,MCV,6 h,62.1 fL
same,Mono,6 h,2.4%
same,PT,6 h,16.2 s
same,Plat,6 h,135.7 x10_4/uL
same,RBC,6 h,622 x10_4/ul
same,Ret,6 h,6.3%
same,WBC,6 h,78.7 x10_2/uL
same,KIDNEY_L,6 h,1 g
same,KIDNEY_R,6 h,1 g
same,KIDNEY_TOTAL,6 h,1.9 g
same,LIVER,6 h,9.4 g
same,ALP,6 h,1381.4 IU/L
same,ALT,6 h,39.2 IU/L
same,AST,6 h,91.4 IU/L
same,BUN,6 h,12.8 mg/dL
same,CRE,6 h,0.2 mg/dL
same,Ca,6 h,10.5 mg/dL
same,Cl,6 h,106.2 meq/L
same,DBIL,6 h,0.002 mg/dL
same,GLC,6 h,175.4 mg/dL
same,IP,6 h,8.9 mg/dL
same,K,6 h,4.5 meq/L
same,LDH,6 h,176 IU/L
same,Na,6 h,141.4 meq/L
same,PL,6 h,127.8 mg/dL
same,RALB,6 h,2.8 g/dL
same,TBIL,6 h,0.018 mg/dL
same,TC,6 h,61.6 mg/dL
same,TG,6 h,115.2 mg/dL
same,TP,6 h,5.2 g/dL
same,gamma-GTP,6 h,1.2 IU/L
same,TERMINAL_BW,9 h,213.7 g
same,APTT,9 h,22.5 s
same,Bas,9 h,0%
same,Eos,9 h,1%
same,Fbg,9 h,293.2 mg/dL
same,Hb,9 h,13 g/dL
same,Ht,9 h,38.2%
same,Lym,9 h,73.4%
same,MCH,9 h,20.9 pg
same,MCHC,9 h,34%
same,MCV,9 h,61.6 fL
same,Mono,9 h,2.2%
same,PT,9 h,16.1 s
same,Plat,9 h,128.3 x10_4/uL
same,RBC,9 h,620.4 x10_4/ul
same,Ret,9 h,6.8%
same,WBC,9 h,74.6 x10_2/uL
same,KIDNEY_L,9 h,1 g
same,KIDNEY_R,9 h,1 g
same,KIDNEY_TOTAL,9 h,1.9 g
same,LIVER,9 h,8.9 g
same,ALP,9 h,1218.6 IU/L
same,ALT,9 h,33.2 IU/L
same,AST,9 h,75.4 IU/L
same,BUN,9 h,11 mg/dL
same,CRE,9 h,0.2 mg/dL
same,Ca,9 h,10.5 mg/dL
same,Cl,9 h,107.2 meq/L
same,DBIL,9 h,0 mg/dL
same,GLC,9 h,176.6 mg/dL
same,IP,9 h,9.1 mg/dL
same,K,9 h,4.5 meq/L
same,LDH,9 h,150 IU/L
same,Na,9 h,141.6 meq/L
same,PL,9 h,138.8 mg/dL
same,RALB,9 h,2.9 g/dL
same,TBIL,9 h,0.018 mg/dL
same,TC,9 h,72 mg/dL
same,TG,9 h,90.2 mg/dL
same,TP,9 h,5.4 g/dL
same,gamma-GTP,9 h,1.6 IU/L
same,TERMINAL_BW,24 h,219.2 g
same,APTT,24 h,22.5 s
same,Bas,24 h,0%
same,Eos,24 h,1%
same,Fbg,24 h,309.8 mg/dL
same,Hb,24 h,13.5 g/dL
same,Ht,24 h,39.4%
same,Lym,24 h,81.4%
same,MCH,24 h,20.7 pg
same,MCHC,24 h,34.3%
same,MCV,24 h,60.5 fL
same,Mono,24 h,2.4%
same,PT,24 h,16.3 s
same,Plat,24 h,124.3 x10_4/uL
same,RBC,24 h,651.8 x10_4/ul
same,Ret,24 h,5.1%
same,WBC,24 h,73.5 x10_2/uL
same,KIDNEY_L,24 h,1 g
same,KIDNEY_R,24 h,1 g
same,KIDNEY_TOTAL,24 h,1.9 g
same,LIVER,24 h,9.5 g
same,ALP,24 h,1371.4 IU/L
same,ALT,24 h,48 IU/L
same,AST,24 h,76.8 IU/L
same,BUN,24 h,15.8 mg/dL
same,CRE,24 h,0.2 mg/dL
same,Ca,24 h,10.6 mg/dL
same,Cl,24 h,106.8 meq/L
same,DBIL,24 h,0 mg/dL
same,GLC,24 h,190.8 mg/dL
same,IP,24 h,6.7 mg/dL
same,K,24 h,4.2 meq/L
same,LDH,24 h,146.8 IU/L
same,Na,24 h,143 meq/L
same,PL,24 h,148.8 mg/dL
same,RALB,24 h,3.1 g/dL
same,TBIL,24 h,0.012 mg/dL
same,TC,24 h,80.6 mg/dL
same,TG,24 h,79.4 mg/dL
same,TP,24 h,5.7 g/dL
same,gamma-GTP,24 h,1.6 IU/L
